The values below come from patent publication US9580430B2, “9H-pyrimido[4,5-B]indoles and related analogs as BET bromodomain inhibitors” (THE REGENTS OF THE UNIVERSITY OF MICHIGAN, priority 2014, dated 2017).

One assay has as its target T1, recombinant BRD4 BD1 (Homo sapiens, UniProt O60885).
T1 construct: for recombinant BRD4 BD1 and BRD4 BD2 proteins
The assay is described as follows: Competitive fluorescence-polarization (FP) binding assay, BRD4 BD1. Further: probe 1.5 nM. To be noted: competitive FP assay; protein 10 nM, probe […]; read-out: IC50 (nM) BRD4 BD1. The method in brief: (§1)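 FP competition with FAM-labelled probe (ZBA248 or BRD-1F) against preincubated protein/probe complex; BD1 at 10 nM and BD2 at 6 nM final, in 100 mM potassium phosphate pH 6.5, 0.01% Triton X-100. 30 min, room temperature. IC50 by nonlinear regression; Ki also derived, using probe Kd from protein saturation.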

In a further assay the test system is MDA-MB-436. Put plainly: Cell growth inhibition, MDA-MB-436 breast cancer cells (WST-8). The format is cell-based. To be noted: Homo sapiens, MDA-MB-436, 96 h; 4 days; read-out: IC50 (nM) MDA-MB-436 Cell Line (WST assay). The method in brief:
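IC50 was computed from WST-8-based cell counting in MDA-MB-436 cells, with absorbance read at 450 nm.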
A general note: Tetrazolium dyes change colour on reduction, which living cells bring about.

Another assay concerns MOLM-13. The assay is described as follows: Cell growth inhibition, MOLM-13 leukemia cells (CellTiter-Glo). To be noted: Homo sapiens, MOLM-13, 96 h; 4 days; read-out: IC50 (nM) MOLM-13 Cell Line (CellTiter-Glo assay). The format is cell-based. The method in brief:
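MOLM-13 leukemia cells treated with compounds; viability read by CellTiter-Glo luminescence after 10-20 min reagent incubation at room temperature. IC50 derived from luminescent signal.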

Another assay deals with T2, recombinant BRD4 BD2 (Homo sapiens, UniProt O60885).
T2 construct: for recombinant BRD4 BD1 and BRD4 BD2 proteins
Put plainly: Competitive fluorescence-polarization (FP) binding assay, BRD4 BD2. Further: probe 1.5 nM. To be noted: competitive FP assay; protein 6 nM, probe […]; read-out: IC50 (nM) BRD4 BD2. The procedure, abridged:
as §1

Turning to `COc1cc2c(cc1-c1c(C)noc1C)[nH]c1nc(C)nc(Nc3ccc(OC)c4ccccc34)c12` [Cpd. No. 100, 7-(3,5-dimethylisoxazol-4-yl)-6-methoxy-N-(4-methoxynaphthalen-1-yl)-2-methyl-9H-pyrimido[4,5-b]indol-4-amine], the IC50 (commonly the concentration at which inhibition is half-maximal) on recombinant BRD4 BD1 amounted to 99 nM; in the assay on MDA-MB-436, 235 nM; in the assay with MOLM-13, 147 nM; on recombinant BRD4 BD2 it was 89 nM.

Turning to `COc1cc2c(cc1-c1c(C)noc1C)[nH]c1nc(C)nc(Nc3c[nH]c4ncccc34)c12` [Cpd. No. 102, 7-(3,5-dimethylisoxazol-4-yl)-6-methoxy-2-methyl-N-(1H-pyrrolo[2,3-b]pyridin-3-yl)-9H-pyrimido[4,5-b]indol-4-amine], the 50% inhibitory concentration (IC50) on recombinant BRD4 BD1 came out at 18 nM; in the assay on MDA-MB-436, 363 nM; in the assay on MOLM-13, 510 nM; on recombinant BRD4 BD2, 17 nM.

On to `COc1cc2c(cc1-c1c(C)noc1C)[nH]c1nc(C)nc(Nc3csc4ncccc34)c12` [Cpd. No. 103, N-(7-(3,5-dimethylisoxazol-4-yl)-6-methoxy-2-methyl-9H-pyrimido[4,5-b]indol-4-yl)thieno[2,3-b]pyridin-3-amine], for which the IC50 amounted to 29 nM at recombinant BRD4 BD1, 120 nM in the assay with MDA-MB-436, 39 nM in the assay with MOLM-13 and 38 nM on recombinant BRD4 BD2.

Take `COc1cc2c(cc1-c1c(C)noc1C)[nH]c1nc(C)nc(Oc3ccnc4ccccc34)c12` [Cpd. No. 104, 4-(6-methoxy-2-methyl-4-(quinolin-4-yloxy)-9H-pyrimido[4,5-b]indol-7-yl)-3,5-dimethylisoxazole]: the IC50 on recombinant BRD4 BD1 is greater than 1000 nM; in the assay on MDA-MB-436 it was 3.4 nM; in the assay with MOLM-13, 603 nM; at recombinant BRD4 BD2 it was 810 nM.

Consider `COc1cc2c(cc1-c1c(C)noc1C)[nH]c1nc(C)nc(Oc3cncc(Br)c3)c12` [Cpd. No. 105, 4-(4-(5-bromopyridin-3-yloxy)-6-methoxy-2-methyl-9H-pyrimido[4,5-b]indol-7-yl)-3,5-dimethylisoxazole], for which the IC50 on recombinant BRD4 BD1 is greater than 1000 nM; with MDA-MB-436, 885 nM; in the assay with MOLM-13 it was 371 nM; on recombinant BRD4 BD2 it was 868 nM.

`COc1cc2c(cc1-c1c(C)noc1C)[nH]c1nc(C)nc(Nc3cncc(Cl)c3)c12` [Cpd. No. 106, N-(5-chloropyridin-3-yl)-7-(3,5-dimethylisoxazol-4-yl)-6-methoxy-2-methyl-9H-pyrimido[4,5-b]indol-4-amine]: the half-inhibitory concentration (IC50) on recombinant BRD4 BD1 is 1410 nM; in the assay with MDA-MB-436 it was 618 nM; with MOLM-13, 56 nM; at recombinant BRD4 BD2, 619 nM.

`COc1cc2c(cc1-c1c(C)noc1C)[nH]c1nc(C)nc(Nc3ccc(F)c(Cl)c3)c12` [Cpd. No. 107, N-(3-chloro-4-fluorophenyl)-7-(3,5-dimethylisoxazol-4-yl)-6-methoxy-2-methyl-9H-pyrimido[4,5-b]indol-4-amine]: the IC50 turned out to be 92 nM at recombinant BRD4 BD1, 229 nM in the assay with MDA-MB-436, 8 nM in the assay on MOLM-13 and 33 nM on recombinant BRD4 BD2.

On to `COc1cc2c(cc1-c1c(C)noc1C)[nH]c1nc(C)nc(Nc3cncc(C)c3)c12` [Cpd. No. 108, 7-(3,5-dimethylisoxazol-4-yl)-6-methoxy-2-methyl-N-(5-methylpyridin-3-yl)-9H-pyrimido[4,5-b]indol-4-amine], for which the concentration for half-maximal inhibition (IC50) stood at 58 nM on recombinant BRD4 BD1, 181 nM in the assay with MDA-MB-436, 19 nM in the assay with MOLM-13 and 21 nM at recombinant BRD4 BD2.

As to `COc1cc2c(cc1-c1c(C)noc1C)[nH]c1nc(C)nc(Nc3cnccc3C)c12` [Cpd. No. 109, 7-(3,5-dimethylisoxazol-4-yl)-6-methoxy-2-methyl-N-(4-methylpyridin-3-yl)-9H-pyrimido[4,5-b]indol-4-amine], the IC50 at recombinant BRD4 BD1 amounted to 284 nM; with MDA-MB-436, 679 nM; with MOLM-13, 12 nM; on recombinant BRD4 BD2 it was 253 nM.

`COc1cc2c(cc1-c1c(C)noc1C)[nH]c1nc(C)nc(Nc3cc(C)ccn3)c12` [Cpd. No. 110, 7-(3,5-dimethylisoxazol-4-yl)-6-methoxy-2-methyl-N-(4-methylpyridin-2-yl)-9H-pyrimido[4,5-b]indol-4-amine]: the IC50 at recombinant BRD4 BD1 was found to be 73 nM; in the assay on MDA-MB-436, 354 nM; in the assay on MOLM-13, 16 nM; on recombinant BRD4 BD2, 33 nM.

In the case of `COc1cc2c(cc1-c1c(C)noc1C)[nH]c1nc(C)nc(Nc3cccc(C)n3)c12` [Cpd. No. 111, 7-(3,5-dimethylisoxazol-4-yl)-6-methoxy-2-methyl-N-(6-methylpyridin-2-yl)-9H-pyrimido[4,5-b]indol-4-amine], the IC50 is 312 nM on recombinant BRD4 BD1, 1100 nM with MDA-MB-436, 7 nM in the assay on MOLM-13 and 218 nM at recombinant BRD4 BD2.

In the case of `COc1cc2c(cc1-c1c(C)noc1C)[nH]c1nc(C)nc(NC3CCCCC3)c12` [Cpd. No. 112, N-cyclohexyl-7-(3,5-dimethylisoxazol-4-yl)-6-methoxy-2-methyl-9H-pyrimido[4,5-b]indol-4-amine], the concentration for half-maximal inhibition (IC50) amounted to 460 nM at recombinant BRD4 BD1, 2430 nM in the assay on MDA-MB-436, 15000 nM in the assay on MOLM-13 and 395 nM at recombinant BRD4 BD2.

Take `COc1cc2c(cc1-c1c(C)noc1C)[nH]c1nc(C)nc(NC3CCCC3)c12` [Cpd. No. 113, N-cyclopentyl-7-(3,5-dimethylisoxazol-4-yl)-6-methoxy-2-methyl-9H-pyrimido[4,5-b]indol-4-amine]: the IC50 on recombinant BRD4 BD1 amounted to 582 nM; in the assay with MDA-MB-436, 1100 nM; in the assay with MOLM-13, 853 nM; at recombinant BRD4 BD2 it was 564 nM.

Take `COc1cc2c(cc1-c1c(C)noc1C)[nH]c1nc(C)nc(Nc3cc(C)n(C)n3)c12` [Cpd. No. 115, N-(1,5-Dimethyl-1H-pyrazol-3-yl)-7-(3,5-dimethylisoxazol-4-yl)-6-methoxy-2-methyl-9H-pyrimido[4,5-b]indol-4-amine]: the IC50 at recombinant BRD4 BD1 was found to be 23.2 nM; with MDA-MB-436, 81.1 nM; in the assay with MOLM-13, 30.7 nM; on recombinant BRD4 BD2, 136 nM.

In the case of `CCn1nc(C)cc1Nc1nc(C)nc2[nH]c3cc(-c4c(C)noc4C)c(OC)cc3c12` [Cpd. No. 116, 7-(3,5-Dimethylisoxazol-4-yl)-N-(1-ethyl-3-methyl-1H-pyrazol-5-yl)-6-methoxy-2-methyl-9H-pyrimido[4,5-b]indol-4-amine], the IC50 at recombinant BRD4 BD1 was determined as 14 nM; in the assay on MDA-MB-436 it was 26.3 nM; with MOLM-13 it was 15.4 nM; at recombinant BRD4 BD2 it was 9.6 nM.

Consider `COc1cc2c(cc1-c1c(C)noc1C)[nH]c1nc(C)nc(Nc3cc(C)nn3C3CCCC3)c12` [Cpd. No. 118, N-(1-Cyclopentyl-3-methyl-1H-pyrazol-5-yl)-7-(3,5-dimethylisoxazol-4-yl)-6-methoxy-2-methyl-9H-pyrimido[4,5-b]indol-4-amine], for which the 50% inhibitory concentration (IC50) worked out at 4.2 nM on recombinant BRD4 BD1, 25 nM with MDA-MB-436, 17.7 nM in the assay on MOLM-13 and 3.4 nM on recombinant BRD4 BD2.

In the case of `COc1cc2c(cc1-c1c(C)noc1C)[nH]c1nc(C)nc(Nc3cc(C)nn3C3CCC3)c12` [Cpd. No. 119, N-(1-Cyclobutyl-3-methyl-1H-pyrazol-5-yl)-7-(3,5-dimethylisoxazol-4-yl)-6-methoxy-2-methyl-9H-pyrimido[4,5-b]indol-4-amine], the concentration for half-maximal inhibition (IC50) stood at 11.4 nM at recombinant BRD4 BD1, 26 nM in the assay on MDA-MB-436, 38.8 nM in the assay with MOLM-13 and 10.6 nM on recombinant BRD4 BD2.

For the compound `COc1cc2c(cc1-c1c(C)noc1C)[nH]c1nc(C)nc(Nc3cc(C(C)(C)C)nn3C)c12` [Cpd. No. 120, N-(3-tert-Butyl-1-methyl-1H-pyrazol-5-yl)-7-(3,5-dimethylisoxazol-4-yl)-6-methoxy-2-methyl-9H-pyrimido[4,5-b]indol-4-amine], the IC50 on recombinant BRD4 BD1 is 9.6 nM; in the assay on MDA-MB-436, 23.5 nM; in the assay on MOLM-13, 23 nM; on recombinant BRD4 BD2, 5.8 nM.

With `COc1cc2c(cc1-c1c(C)noc1C)[nH]c1nc(C)nc(Nc3cc(C4CC4)nn3C)c12` [Cpd. No. 121, N-(3-Cyclopropyl-1-methyl-1H-pyrazol-5-yl)-7-(3,5-dimethylisoxazol-4-yl)-6-methoxy-2-methyl-9H-pyrimido[4,5-b]indol-4-amine], the IC50 at recombinant BRD4 BD1 worked out at 1.6 nM; in the assay with MDA-MB-436, 11.2 nM; with MOLM-13 it was 11.7 nM; on recombinant BRD4 BD2, 3.2 nM.

As for `COc1cc2c(cc1-c1c(C)noc1C)[nH]c1nc(C)nc(Nc3c4c(nn3C)CCC4)c12` [Cpd. No. 122, 7-(3,5-Dimethylisoxazol-4-yl)-6-methoxy-2-methyl-N-(2-methyl-2,4,5,6-tetrahydrocyclopenta-[c]pyrazol-3-yl)-9H-pyrimido[4,5-b]indol-4-amine], the IC50 at recombinant BRD4 BD1 came to 4.3 nM; in the assay with MDA-MB-436, 7.8 nM; in the assay on MOLM-13 it was 6 nM; on recombinant BRD4 BD2, 2.3 nM.

On to `COc1cc2c(cc1-c1c(C)noc1C)[nH]c1nc(C)nc(Nc3nn(C)c4cccnc34)c12` [Cpd. No. 123, 7-(3,5-Dimethylisoxazol-4-yl)-6-methoxy-2-methyl-N-(1-methyl-1H-pyrazolo[4,3-b]pyridin-3-yl)-9H-pyrimido[4,5-b]indol-4-amine], for which the IC50 on recombinant BRD4 BD1 is 257 nM; in the assay on MDA-MB-436, 1420 nM; in the assay with MOLM-13 it was 759 nM; on recombinant BRD4 BD2, 483 nM.
